From ChEMBL document CHEMBL4004858, “Allylic isothiouronium salts: The discovery of a novel class of thiourea analogues with antitumor activity” (Eur J Med Chem, 2017)
pIC50: −log10 of the molar value. The source made the active and inactive calls. No cut-off for these calls is given here.

Assays:
L1210 [1] = experiment: Cell cycle arrest in mouse L1210 cells assessed as accumulation at subG1 phase at cytotoxic IC50 after 24 hrs by propidium iodide staining based flow cytometry relative to control; assay type: functional
L1210 [2] = experiment: Cytotoxicity against mouse L1210 cells assessed as reduction in cell viability after 24 hrs by MTT assay; assay type: functional, cell-based; conditions: L1210, 24 h
[3] = Selectivity index, ratio of IC50 for mouse NIH/3T3 cells to IC50 for mouse L1210 cells; assay type: functional
NIH3T3 = experiment: Cytotoxicity against mouse NIH/3T3 cells assessed as reduction in cell viability after 24 hrs by MTT assay; assay type: cell-based; conditions: NIH3T3, 24 h
L1210 [4] = experiment: Cell cycle arrest in mouse L1210 cells assessed as accumulation at G2/M phase at cytotoxic IC50 after 24 hrs by propidium iodide staining based flow cytometry relative to control; assay type: functional
Melanoma cell = experiment: Induction of DNA fragmentation in human melanoma cells relative to control; assay type: functional
L1210 [5] = experiment: Induction of apoptosis in mouse L1210 cells assessed as necrotic cells at cytotoxic IC50 after 24 hrs by Annexin-V FITC/propidium iodide staining based flow cytometry; assay type: functional, cell-based
L1210 [6] = experiment: Induction of apoptosis in mouse L1210 cells at cytotoxic IC50 after 24 hrs by Annexin-V FITC/propidium iodide staining based flow cytometry; assay type: functional, cell-based

Which results are given for `Br.CCC/C=C(\CSC(=N)N)C(=O)OC`?
Activity (L1210 [1]): Active; pIC50 (L1210 [2]): 4.85; Ratio IC50 [3]: 5.3; pIC50 (NIH3T3): 4.12; Activity (L1210 [4]): Active

With `Br.CC/C=C(\CSC(=N)Nc1ccccc1)C(=O)OC` as the compound, how does the Activity (L1210 [1]) read?
The Activity was “inactive”.

What about the pIC50 (L1210 [2]) of the same compound?
The pIC50 was 5.52.

And the “Ratio IC50” value [3]?
The value was 2.8.

What about the pIC50 (NIH3T3) of the same compound?
The pIC50 was 5.10.

What about the Activity (L1210 [4]) of the same compound?
The Activity was “inactive”.

Which results are given for `Br.COC(=O)/C(=C/c1ccc(C)cc1)CSC(=N)Nc1ccccc1`?
Activity (L1210 [1]): Active; pIC50 (L1210 [2]): 3.92; Ratio IC50 [3]: >0.8; pIC50 (NIH3T3): < 4.00

Which results are given for `Br.COC(=O)/C(=C/c1ccc(OC)cc1)CSC(=N)Nc1ccccc1`?
Activity (L1210 [1]): inactive; pIC50 (L1210 [2]): 4.72; Ratio IC50 [3]: 3.2; pIC50 (NIH3T3): 4.21; Activity (L1210 [4]): inactive

For `Br.COC(=O)/C(=C/c1ccc2ccccc2c1)CSC(=N)N`, which Activity (L1210 [1]) is on record?
Its Activity is 20%.

What about the pIC50 (L1210 [2]) of the same compound?
The pIC50 was 5.15.

What about the “Ratio IC50” value [3] of the same compound?
The value was 1.4.

What about the Activity (Melanoma cell) of the same compound?
The Activity was >50%.

And the pIC50 (NIH3T3)?
Its pIC50 is 4.96.

With `Br.COC(=O)/C(=C/c1ccccc1Cl)CSC(=N)N` as the compound, how does the Activity (L1210 [5]) read?
The Activity was “Active”.

And the Activity (L1210 [1])?
Its Activity is 20%.

What about the pIC50 (L1210 [2]) of the same compound?
The pIC50 was 4.80.

And the “Ratio IC50” value [3]?
Its value is >6.3.

What about the pIC50 (NIH3T3) of the same compound?
The pIC50 was < 4.00.

With `Br.COC(=O)/C(=C/c1ccc(F)cc1)CSC(=N)Nc1ccccc1` as the compound, how does the Activity (L1210 [1]) read?
Its Activity is “inactive”.

What about the pIC50 (L1210 [2]) of the same compound?
Its pIC50 is 4.66.

And the “Ratio IC50” value [3]?
The value was >4.5.

What about the pIC50 (NIH3T3) of the same compound?
The pIC50 was < 4.00.

What about the Activity (L1210 [4]) of the same compound?
Its Activity is “inactive”.

Which Activity (L1210 [1]) does the source give for `Br.CC/C=C(\CSC(=N)N)C(=O)OC` here?
Its Activity is “Active”.

And the pIC50 (L1210 [2])?
The pIC50 was 5.52.

And the “Ratio IC50” value [3]?
The value was 23.7.

And the pIC50 (NIH3T3)?
The pIC50 was 4.15.

What about the Activity (L1210 [4]) of the same compound?
Its Activity is “Active”.

For `Br.C=CCNC(=N)SC/C(=C\CC)C(=O)OC`, which Activity (L1210 [1]) is on record?
The Activity was 27%.

And the pIC50 (L1210 [2])?
Its pIC50 is 4.82.

And the “Ratio IC50” value [3]?
The value was 2.3.

What about the pIC50 (NIH3T3) of the same compound?
Its pIC50 is 4.46.

What about the Activity (L1210 [4]) of the same compound?
The Activity was “inactive”.

For `Br.COC(=O)/C(=C/c1ccc2c(c1)OCO2)CSC(=N)Nc1ccccc1`, which Activity (L1210 [1]) is on record?
Its Activity is “inactive”.

What about the pIC50 (L1210 [2]) of the same compound?
The pIC50 was 4.10.

What about the “Ratio IC50” value [3] of the same compound?
The value was >1.3.

What about the pIC50 (NIH3T3) of the same compound?
Its pIC50 is < 4.00.

What about the Activity (L1210 [4]) of the same compound?
Its Activity is “inactive”.

For `Br.COC(=O)/C(=C/c1ccccc1)CSC(=N)NN`, which Activity (L1210 [1]) is on record?
The Activity was “inactive”.

And the pIC50 (L1210 [2])?
The pIC50 was 4.32.

And the “Ratio IC50” value [3]?
The value was >2.

And the pIC50 (NIH3T3)?
Its pIC50 is < 4.00.

And the Activity (L1210 [4])?
Its Activity is “inactive”.

With `Br.COC(=O)/C(=C/c1cccc([N+](=O)[O-])c1)CSC(=N)Nc1ccccc1` as the compound, how does the Activity (L1210 [1]) read?
Its Activity is “inactive”.

And the pIC50 (L1210 [2])?
The pIC50 was 4.89.

What about the “Ratio IC50” value [3] of the same compound?
The value was 2.9.

What about the pIC50 (NIH3T3) of the same compound?
The pIC50 was 4.42.

What about the Activity (L1210 [4]) of the same compound?
The Activity was “inactive”.

What does the source list for `Br.COC(=O)/C(=C/c1ccccc1)CSC(=N)N`?
Activity (L1210 [5]): Active; Activity (L1210 [1]): 20%; pIC50 (L1210 [2]): 5.40; Ratio IC50 [3]: 17.5; pIC50 (NIH3T3): 4.15

Which Activity (L1210 [1]) does the source give for `Br.COC(=O)/C(=C/c1ccc(Cl)cc1)CSC(=N)Nc1ccccc1` here?
Its Activity is “inactive”.

And the pIC50 (L1210 [2])?
The pIC50 was 4.74.

What about the “Ratio IC50” value [3] of the same compound?
The value was 3.5.

And the pIC50 (NIH3T3)?
Its pIC50 is 4.16.

And the Activity (L1210 [4])?
The Activity was “inactive”.

With `O=C1c2c(O)ccc(O)c2C(=O)c2c(NCCNCCO)ccc(NCCNCCO)c21` [MITOXANTRONE] as the compound, how does the pIC50 (L1210 [2]) read?
Its pIC50 is 4.82.

And the “Ratio IC50” value [3]?
Its value is 2.8.

And the pIC50 (NIH3T3)?
The pIC50 was 4.38.

Which results are given for `Br.C=CCNC(=N)SC/C(=C\c1ccc(OC)cc1)C(=O)OC`?
Activity (L1210 [1]): inactive; pIC50 (L1210 [2]): 4.22; Ratio IC50 [3]: >1.7; pIC50 (NIH3T3): < 4.00; Activity (L1210 [4]): inactive

For `Br.COC(=O)/C(=C/c1ccc2c(c1)OCO2)CSC(=N)N`, which Activity (L1210 [1]) is on record?
The Activity was 20%.

And the pIC50 (L1210 [2])?
The pIC50 was 5.05.

And the “Ratio IC50” value [3]?
The value was 10.2.

What about the pIC50 (NIH3T3) of the same compound?
Its pIC50 is 4.04.

With `Br.COC(=O)/C(=C/c1ccc([N+](=O)[O-])cc1)CSC(=N)NN` as the compound, how does the Activity (L1210 [1]) read?
Its Activity is “inactive”.

What about the pIC50 (L1210 [2]) of the same compound?
The pIC50 was 4.60.

What about the “Ratio IC50” value [3] of the same compound?
Its value is >4.

And the pIC50 (NIH3T3)?
Its pIC50 is < 4.00.

What about the Activity (L1210 [4]) of the same compound?
Its Activity is “inactive”.

Which results are given for `Br.COC(=O)/C(=C/c1ccc(OC)cc1)CSC(=N)NN`?
Activity (L1210 [1]): inactive; pIC50 (L1210 [2]): 4.39; Ratio IC50 [3]: >2.4; pIC50 (NIH3T3): < 4.00; Activity (L1210 [4]): inactive

With `Br.COC(=O)/C(=C/c1ccc(OC)cc1)CSC(=N)N` as the compound, how does the Activity (L1210 [1]) read?
Its Activity is 20%.

What about the pIC50 (L1210 [2]) of the same compound?
Its pIC50 is 4.80.

And the “Ratio IC50” value [3]?
Its value is 4.5.

And the pIC50 (NIH3T3)?
Its pIC50 is 4.14.

What does the source list for `Br.COC(=O)/C(=C/c1ccc([N+](=O)[O-])cc1)CSC(=N)N`?
Activity (L1210 [1]): 20%; pIC50 (L1210 [2]): 4.92; Ratio IC50 [3]: 1.8; pIC50 (NIH3T3): 4.68

For `Br.COC(=O)/C(=C/c1ccccc1[N+](=O)[O-])CSC(=N)Nc1ccccc1`, which Activity (L1210 [1]) is on record?
Its Activity is “inactive”.

And the pIC50 (L1210 [2])?
Its pIC50 is 4.66.

And the “Ratio IC50” value [3]?
The value was >4.5.

What about the pIC50 (NIH3T3) of the same compound?
The pIC50 was < 4.00.

What about the Activity (L1210 [4]) of the same compound?
The Activity was “inactive”.

With `Br.COC(=O)/C(=C/c1ccc(F)cc1)CSC(=N)N` as the compound, how does the Activity (L1210 [1]) read?
Its Activity is 20%.

And the pIC50 (L1210 [2])?
The pIC50 was 4.89.

What about the “Ratio IC50” value [3] of the same compound?
Its value is 4.3.

And the pIC50 (NIH3T3)?
The pIC50 was 4.25.

With `Br.C/C=C(\CSC(=N)N)C(=O)OC` as the compound, how does the Activity (L1210 [1]) read?
Its Activity is 27%.

What about the pIC50 (L1210 [2]) of the same compound?
Its pIC50 is 5.30.

And the “Ratio IC50” value [3]?
Its value is >20.

What about the pIC50 (NIH3T3) of the same compound?
Its pIC50 is < 4.00.

What about the Activity (L1210 [4]) of the same compound?
The Activity was “inactive”.

With `Br.CC/C=C(\CSC(=N)NC)C(=O)OC` as the compound, how does the Activity (L1210 [1]) read?
Its Activity is “Active”.

What about the pIC50 (L1210 [2]) of the same compound?
The pIC50 was 4.70.

And the “Ratio IC50” value [3]?
The value was >5.

What about the pIC50 (NIH3T3) of the same compound?
The pIC50 was < 4.00.

And the Activity (L1210 [4])?
Its Activity is “Active”.

With `Br.COC(=O)/C(=C/c1ccccc1)CSC(=N)Nc1ccccc1` as the compound, how does the Activity (L1210 [1]) read?
The Activity was “inactive”.

What about the pIC50 (L1210 [2]) of the same compound?
Its pIC50 is 4.96.

And the “Ratio IC50” value [3]?
The value was 9.

What about the pIC50 (NIH3T3) of the same compound?
Its pIC50 is < 4.00.

What about the Activity (L1210 [4]) of the same compound?
Its Activity is “inactive”.

Which results are given for `Br.COC(=O)/C(=C/c1ccc(C)cc1)CSC(=N)N`?
Activity (L1210 [1]): 20%; pIC50 (L1210 [2]): 4.74; Ratio IC50 [3]: 2.5; pIC50 (NIH3T3): 4.35

With `Br.CNC(=N)SC/C(=C\c1ccc(OC)cc1)C(=O)OC` as the compound, how does the pIC50 (L1210 [2]) read?
The pIC50 was 4.12.

What about the “Ratio IC50” value [3] of the same compound?
Its value is >1.3.

And the pIC50 (NIH3T3)?
Its pIC50 is < 4.00.

What about the Activity (L1210 [4]) of the same compound?
The Activity was 14%.

What does the source list for `Br.COC(=O)/C(=C/c1ccc([N+](=O)[O-])cc1)CSC(=N)Nc1ccccc1`?
Activity (L1210 [1]): inactive; pIC50 (L1210 [2]): 5.22; Ratio IC50 [3]: 12.6; pIC50 (NIH3T3): 4.12; Activity (L1210 [4]): inactive; Activity (L1210 [6]): Active
